Test results reported in ChEMBL document CHEMBL3885861, “Open TG-GATES”.

Species: Rattus norvegicus
Experiment: Open TG-GATES - Regimen: Daily Repeat
Type: toxicity, organism-based, Sprague-Dawley
Parameters: regimen Daily Repeat, gender Male, age 6 weeks
Conditions: in vivo, po, 100 mg/kg, route gavage, dose level High; for APTT / Bas / Eos / Fbg / Hb / Ht / Lym / MCH / MCHC / MCV / Mono / Neu / PT / Plat / RBC / Ret / WBC: tissue Blood; for KIDNEY_L / KIDNEY_R / KIDNEY_TOTAL: tissue Kidney; for LIVER: tissue Liver; for A/G / ALP / ALT / AST / BUN / CRE / Ca / Cl / DBIL / GLC / IP / K / LDH / Na / PL / RALB / TBIL / TC / TG / TP / gamma-GTP: tissue Plasma

## CC1=C(/C=C/C(C)=C/C=C/C(C)=C/CO)C(C)(C)CCC1 [RETINOL]
72 h, time 3 day
  TERMINAL_BW: 214.3 g
  APTT: 29 s
  Bas: 0%
  Eos: 0.4%
  Fbg: 274.4 mg/dL
  Hb: 13.8 g/dL
  Ht: 39.8%
  Lym: 74.4%
  MCH: 21 pg
  MCHC: 34.6%
  MCV: 60.9 fL
  Mono: 3.4%
  Neu: 20.6%
  PT: 18.1 s
  Plat: 112.8 x10_4/uL
  RBC: 654.8 x10_4/ul
  Ret: 4.3%
  WBC: 95.3 x10_2/uL
  KIDNEY_L: 1 g
  KIDNEY_R: 1 g
  KIDNEY_TOTAL: 2 g
  LIVER: 10.3 g
  A/G: 1.3
  ALP: 2174.2 IU/L
  ALT: 52.2 IU/L
  AST: 83.8 IU/L
  BUN: 17 mg/dL
  CRE: 0.1 mg/dL
  Ca: 11.1 mg/dL
  Cl: 107 meq/L
  DBIL: 0.004 mg/dL
  GLC: 192.2 mg/dL
  IP: 7.9 mg/dL
  K: 4.3 meq/L
  LDH: 241 IU/L
  Na: 141.8 meq/L
  PL: 151.2 mg/dL
  RALB: 3.1 g/dL
  TBIL: 0.01 mg/dL
  TC: 70.6 mg/dL
  TG: 196.2 mg/dL
  TP: 5.6 g/dL
  gamma-GTP: 1.4 IU/L
[…], time 7 day
  TERMINAL_BW: 231.5 g
  APTT: 32.7 s
  Bas: 0%
  Eos: 0.2%
  Fbg: 293.8 mg/dL
  Hb: 13.6 g/dL
  Ht: 38.5%
  Lym: 73.2%
  MCH: 21.1 pg
  MCHC: 35.2%
  MCV: 60 fL
  Mono: 2.6%
  Neu: 22.4%
  PT: 16.1 s
  Plat: 114.4 x10_4/uL
  RBC: 642.2 x10_4/ul
  Ret: 2%
  WBC: 102.2 x10_2/uL
  KIDNEY_L: 1.1 g
  KIDNEY_R: 1.1 g
  KIDNEY_TOTAL: 2.2 g
  LIVER: 11.9 g
  A/G: 1
  ALP: 2413.2 IU/L
  ALT: 47.8 IU/L
  AST: 91.4 IU/L
  BUN: 16.8 mg/dL
  CRE: 0.2 mg/dL
  Ca: 11.5 mg/dL
  Cl: 104.8 meq/L
  DBIL: 0 mg/dL
  GLC: 182.6 mg/dL
  IP: 8.9 mg/dL
  K: 4.3 meq/L
  LDH: 266 IU/L
  Na: 142.6 meq/L
  PL: 162.2 mg/dL
  RALB: 2.8 g/dL
  TBIL: 0.008 mg/dL
  TC: 76.4 mg/dL
  TG: 306.2 mg/dL
  TP: 5.6 g/dL
  gamma-GTP: 1.4 IU/L
[…], time 14 day
  TERMINAL_BW: 234.2 g
  APTT: 43.8 s
  Bas: 0%
  Eos: 0.4%
  Fbg: 373.8 mg/dL
  Hb: 13 g/dL
  Ht: 36.5%
  Lym: 62.8%
  MCH: 20.2 pg
  MCHC: 35.6%
  MCV: 56.6 fL
  Mono: 4.2%
  Neu: 31.8%
  PT: 18.5 s
  Plat: 127.2 x10_4/uL
  RBC: 644.8 x10_4/ul
  Ret: 1.3%
  WBC: 139.1 x10_2/uL
  KIDNEY_L: 1.1 g
  KIDNEY_R: 1.1 g
  KIDNEY_TOTAL: 2.2 g
  LIVER: 11.2 g
  A/G: 0.7
  ALP: 1719.6 IU/L
  ALT: 43.8 IU/L
  AST: 99.6 IU/L
  BUN: 13.6 mg/dL
  CRE: 0.2 mg/dL
  Ca: 11.3 mg/dL
  Cl: 106.2 meq/L
  DBIL: 0 mg/dL
  GLC: 186.6 mg/dL
  IP: 7.7 mg/dL
  K: 4.1 meq/L
  LDH: 212.8 IU/L
  Na: 141.8 meq/L
  PL: 136.2 mg/dL
  RALB: 2.1 g/dL
  TBIL: 0.002 mg/dL
  TC: 67.8 mg/dL
  TG: 151.8 mg/dL
  TP: 5 g/dL
  gamma-GTP: 1.2 IU/L
[…], time 28 day
  TERMINAL_BW: 190.7 g
  APTT: 37 s
  Bas: 0%
  Eos: 0.5%
  Fbg: 294 mg/dL
  Hb: 12.1 g/dL
  Ht: 34.3%
  Lym: 60.5%
  MCH: 17.9 pg
  MCHC: 35.2%
  MCV: 50.8 fL
  Mono: 5%
  Neu: 33.5%
  PT: 17.8 s
  Plat: 144.9 x10_4/uL
  RBC: 673 x10_4/ul
  Ret: 2.9%
  WBC: 160.4 x10_2/uL
  KIDNEY_L: 1 g
  KIDNEY_R: 1.1 g
  KIDNEY_TOTAL: 2.1 g
  LIVER: 9.5 g
  A/G: 0.6
  ALP: 1327.7 IU/L
  ALT: 55.3 IU/L
  AST: 166.3 IU/L
  BUN: 52 mg/dL
  CRE: 0.3 mg/dL
  Ca: 10.5 mg/dL
  Cl: 113 meq/L
  DBIL: 0.01 mg/dL
  GLC: 225 mg/dL
  IP: 9.1 mg/dL
  K: 4.1 meq/L
  LDH: 685.3 IU/L
  Na: 148.3 meq/L
  PL: 85 mg/dL
  RALB: 1.7 g/dL
  TBIL: 0.0233 mg/dL
  TC: 43.7 mg/dL
  TG: 57.3 mg/dL
  TP: 4.4 g/dL
  gamma-GTP: 2.3 IU/L
